Results from patent publication US7687640B2, “Cinnamide compound” (Eisai R&D Management Co., Ltd., priority 2004, dated 2010).
Where a name gives a salt, the structure may show the parent alone.

System: Aβ42 production
Assay: Quantification of Aβ peptide (Aβx-42 ELISA) in neuronal culture from rat fetus brain
Type: cell-based
Settings: primary neuronal culture from cerebral cortices of embryonic day 18 Wistar rat; compound added on day 4 of culture, incubation for 3 days; Aβx-42 in medium by ELISA, % of CTRL; read-out: Effect to Reduce Aβ42 Production IC50
Experimental: Quantification of Aβ Peptide in Neuronal Culture from Rat Fetus Brain (1)
Primary neuronal cultures were prepared from cerebral cortices from embryonic day 18 Wistar rat (Charles River Japan, Yokohama, Japan). The embryos were aseptically removed from a pregnant rat under ether anesthesia. The brain was isolated from the embryo, and immersed in ice-cold L-15 medium (for example, Invitrogen Corp. Cat #11415-064, Carlsbad, Calif., USA, or SIGMA L1518, St. Louis. MO, USA). The cerebral cortex was collected under a stereoscopic microscope from the brain. The cerebral cortex fragments collected were subjected to enzyme treatment in an enzyme solution containing 0.25% trypsin (for example, Invitrogen Corp., Cat #15050-065, Carlsbad, Calif., USA) and 0.01% DNase (for example, Sigma D5025, St. Louis. MO, USA) at 37 C for 30 minutes to allow for cell dispersion. The enzyme reaction was terminated by addition of same volume of heat-inactivated horse serum. After centrifugation at 1500 rpm for 5 minutes, the supernatant was removed and 5-10 ml of medium was added to the cell pellet. Neurobasal Medium™ (Invitrogen Corp., Carlsbad, Calif., USA) supplemented with 2% B-27 supplement (Invitrogen Corp., Carlsbad, Calif., USA), 25 μM 2-mercaptoethanol (2-ME, WAKO, 139-06861, Osaka, Japan), 0.5 mM L-glutamine (for example, Invitrogen Corp., Cat # 25030-081, Carlsbad, Calif., USA), and 1% antibiotics-antimycotics (Invitrogen Corp., Cat # 15240-062, Carlsbad, Calif., USA) was used as the culture medium (Neurobasal/B27/2-ME). At the compound evaluation, the medium of the same composition not to add 2-ME alone (Neurobasal/B27) was used. The cell pellet was triturated by mild pipetting. Remaining cell pellet was removed by filtering through a 40-μm nylon mesh (Cell Strainer, Cat # 35-2340, Becton Dickinson Labware, Franklin Lakes, N.J., USA) and a neuronal cell suspension was obtained. The neuronal cell suspension was diluted with the Neurobasal/B27/2-ME medium and then plated in a volume of 100 μl/well to obtain an initial cell density of 5×10^5 cells/cm^2 in a 96-well polystyrene plate pre-coated with poly-L or D-lysine (for example, Falcon MICROTEST Tissue culture plate 96 well flat bottom with low evaporation lid (Cat # 35-3075, Becton Dickinson Labware, Franklin Lakes, N.J., USA) coated with poly-L-lysine using the method shown below, or BIOCOAT™ cell environments Poly-D-lysine cell ware 96-well plate, Cat # 35-6461, Becton Dickinson Labware, Franklin Lakes, N.J., USA). Poly-L-lysine coating was carried out as follows. Poly-L-lysine (SIGMA P2636, St. Louis, Mo., USA) solution at 100 μg/ml was prepared aseptically with 0.15 M Borate buffer (pH 8.5). The solution was added to a 96-well polystyrene […] at 50-100 μl/well and incubated at room temperature for one hour or more, or at 4 C overnight or longer. This was rinsed 4 or more times with sterile water, and then dried or rinsed with, for example, sterile PBS or medium, and used for plating cells. Cells were cultured for one day in an incubator of 5% CO2-95% air at 37 C, the entire amount of the medium was exchanged with fresh Neurobasal/B27/2-ME, and the cells were then cultured for further 3 days.
Drugs were added on day 4 of culture as follows. The entire amount of the medium was removed from culture well, and Neurobasal/B27 medium was added at 180 μl/well. The test compound dimethyl sulfoxide (hereinafter abbreviated as DMSO) solution was diluted with Neurobasal/B27 so than it would be 10-fold of the desired final concentration. A diluent was added at 20 μl/well and mixed well. The final concentration of DMSO was 1% or less. Only DMSO was added to the control group.
After incubation for 3 days, the entire amount of the medium was collected as ELISA sample. This was used without any dilution for Aβx-42 measurement, and diluted to 5-fold with the diluent supplied with ELISA kit for Aβx-40 measurement, before subjecting to respective ELISA assays. […]

Going from `COc1cc(/C=C/C(=O)NCc2cccc(-c3ccccc3)c2)ccc1-n1cnc(C)c1` [Example 121, (E)-N-biphenyl-3-ylmethyl-3-(3-methoxy-4-(4-methyl-1H-imidazol-1-yl)phenyl)acrylic acid amide] to `COc1cc(/C=C/C(=O)N[C@@H](CF)Cc2ccccc2)ccc1-n1cnc(C)c1` [Example 139, (E)-N-[(1R)-fluoromethyl-2-phenylethyl]-3-[3-methoxy-4-(4-methyl-1H-imidazol-1-yl)phenyl]acrylic acid amide], the IC50 rises from 0.07 µM to 0.2 µM (2.9-fold).

`COc1cc(/C=C(\Cc2ccccc2)C(=O)N[C@@H]2c3ccccc3C[C@@H]2O)ccc1-n1cnc(C)c1` [Example 96, (E)-2-benzyl-N-[(1R,2S)-2-hydroxy-indan-1-yl]-3-[3-methoxy-4-(4-methyl-1H-imidazol-1-yl)phenyl]acrylamide trifluoroacetic acid salt] and `COc1cc(C=C(F)C(=O)N[C@@H]2c3ccccc3C[C@@H]2O)ccc1-n1cnc(C)c1` (stereo in doubt) [Example 90, (E)-2-fluoro-N-[(1R,2S)-2-hydroxy-indan-1-yl]-3-[3-methoxy-4-(4-methyl-1H-imidazol-1-yl)phenyl]acrylamide] are within 1.5-fold of each other in IC50: 0.22 µM for the first, 0.24 µM for the second.

Going from `COc1cc(/C=C2\CCCN(Cc3ccc(F)c(F)c3)C2=O)cnc1-n1cnc(C)c1` [Example 611, (E)-1-(3,4-difluorobenzyl)-3-{[5-methoxy-6-(4-methyl-1H-imidazol-1-yl)pyridin-3-yl]methylene}piperidin-2-one] to `COc1cc(/C=C2\CCCN(Cc3ccc(F)c(F)c3)C2=O)ccc1-n1cnc(C)c1` [Example 416, (E)-1-(3,4-difluorobenzyl)-3-[3-methoxy-4-(4-methyl-1H-imidazol-1-yl)benzylidene]piperidin-2-one], the IC50 falls from 0.265 µM to 0.1 µM (2.6-fold). The second is the more potent here.

`COc1cc(/C=C2\CCCN([C@H](C)c3ccc(F)cc3F)C2=O)ccc1-n1cnc(C)c1` (mixture of isomers) [Example 621, (E)-1-[(1R) and (1S)-1-(2,4-difluorophenyl)ethyl]-3-[3-methoxy-4-(4-methyl-1H-imidazol-1-yl)benzylidene]piperidin-2-one] and `COc1cc(/C=C2\CCCN(C(C)c3c[nH]c4ccccc34)C2=O)ccc1-n1cnc(C)c1` [Example 965, (E)-1-[(1R) and (1S)-(1H-indol-3-yl)ethyl]-3-[3-methoxy-4-(4-methyl-1H-imidazol-1-yl)benzylidene]piperidin-2-one] are within 1.5-fold of each other in IC50: 0.1 µM for the first, 0.087 µM for the second.

Compared with `COc1cc(/C=C2\CCCN([C@H]3CCOc4ccccc43)C2=O)ccc1-n1cnc(C)c1` (mixture of isomers) [Example 420, (E)-1-[(4R) and (4S)-chroman-4-yl]-3-[3-methoxy-4-(4-methyl-1H-imidazol-1-yl)benzylidene]piperidin-2-one], `COc1cc(/C=C2\CCCN(C3CCOc4cc(F)ccc43)C2=O)ccc1-n1cnc(C)c1` [Example 1025, (E)-1-[(4R) and (4S)-7-fluorochroman-4-yl]-3-[3-methoxy-4-(4-methyl-1H-imidazol-1-yl)benzylidene]piperidin-2-one] is 1.7-fold lower in IC50: 0.12 µM for the first, 0.07 µM for the second.

`COc1cc(/C=C/C(=O)N[C@H]2CCc3ccccc32)ccc1-n1cnc(C)c1` [Example 122, (E)-N-[(1S)-indan-1-yl]-3-[3-methoxy-4-(4-methyl-1H-imidazol-1-yl)phenyl]acrylamide trifluoroacetic acid salt] and `COc1cc(/C=C/C(=O)N[C@H]2CCOc3ccccc32)ccc1-n1cnc(C)c1` (mixture of isomers) [Example 414, (E)-N-[(4R) and (4S)-chroman-4-yl]-3-[3-methoxy-4-(4-methyl-1H-imidazol-1-yl)phenyl]acrylamide] are within 1.5-fold of each other in IC50: 0.19 µM for the first, 0.13 µM for the second.

Going from `COc1cc(/C=C/C(=O)N2CCCC(c3ccc(F)cc3)CC2)ccc1-n1cnc(C)c1` (stereo not shown) [Example 353, (E)-1-[4-(4-fluorophenyl)azepan-1-yl]-3-[3-methoxy-4-(4-methyl-1H-imidazol-1-yl)phenyl]propenone] to `COc1cc(/C=C/C(=O)N2CCC(c3cc4ccccc4[nH]3)CC2)ccc1-n1cnc(C)c1` [Example 338, (E)-1-{4-(1H-indol-2-yl)piperidin-1-yl}-3-[3-methoxy-4-(4-methyl-1H-imidazol-1-yl)phenyl]propenone], the IC50 rises from 0.22 µM to 0.33 µM (1.5-fold). The first is the more potent here.

First: COc1cc(/C=C(\F)C(=O)NC2c3ccccc3-c3ccccc32)ccc1-n1cnc(C)c1 [Example 86, N-(9H-fluoren-9-yl)-2-fluoro-3-[3-methoxy-4-(4-methyl-1H-imidazol-1-yl)phenyl]acrylamide]
Second: COc1cc(/C=C2\CCCN(C3Cc4ccccc4C3)C2=O)ccc1-n1cnc(C)c1 [Example 418, (E)-1-indan-2-yl-3-[3-methoxy-4-(4-methyl-1H-imidazol-1-yl)benzylidene]piperidin-2-one]
The IC50 of the first is 2.9-fold higher: 0.32 µM for the first, 0.109 µM for the second. The second is the more potent here.

First: COc1cc(/C=C/C(=O)N2CCC(c3cc4ccccc4n3CCO)CC2)ccc1-n1cnc(C)c1 [Example 366, (E)-1-{4-[1-(2-hydroxyethyl)-1H-indol-2-yl]piperidin-1-yl}-3-[3-methoxy-4-(4-methyl-1H-imidazol-1-yl)phenyl]propenone]
Second: COc1cc(/C=C2\CCCN(C3CCc4ccccc4C3)C2=O)ccc1-n1cnc(C)c1 (stereo not shown) [Example 1014, (E)-3-[3-methoxy-4-(4-methyl-1H-imidazol-1-yl)benzylidene]-1-[(2R and 2S)-1,2,3,4-tetrahydronaphthalen-2-yl]piperidin-2-one]
The IC50 of the first is 5.5-fold higher: 0.33 µM for the first, 0.06 µM for the second.

First: COc1cc(/C=C2\CCCN(Cc3ccc(C(C)(C)C)cc3)C2=O)ccc1-n1cnc(C)c1 [Example 430, (E)-1-(4-tert-butylbenzyl)-3-[3-methoxy-4-(4-methyl-1H-imidazol-1-yl)benzylidene]piperidin-2-one]
Second: COc1cc(/C=C2\CCCN(Cc3cccc(I)c3)C2=O)ccc1-n1cnc(C)c1 [Example 402, (E)-1-(3-iodobenzyl)-3-[3-methoxy-4-(4-methyl-1H-imidazol-1-yl)benzylidene]piperidin-2-one monotrifluoroacetic acid salt]
The IC50 of the first is 1.7-fold higher: 0.119 µM for the first, 0.07 µM for the second.

Compared with `COc1cc(/C=C2\CCCN(Cc3cccc(Cl)n3)C2=O)ccc1-n1cnc(C)c1` [Example 427, (E)-1-[(6-chloropyridin-2-yl)methyl]-3-[3-methoxy-4-(4-methyl-1H-imidazol-1-yl)benzylidene]piperidin-2-one], `COc1cc(/C=C2\CCCN(Cc3cc(Cl)nc(Cl)c3)C2=O)ccc1-n1cnc(C)c1` [Example 403, (E)-1-(2,6-dichloropyridine-4-ylmethyl)-3-[3-methoxy-4-(4-methyl-1H-imidazol-1-yl)benzylidene]piperidin-2-one] is 8.7-fold lower in IC50: 0.78 µM for the first, 0.09 µM for the second.

`COc1cc(/C=C2\CCCN(C3COc4ccccc4C3)C2=O)ccc1-n1cnc(C)c1` (stereo not shown) [Example 1027, (E)-1-[(3R and 3S)-chroman-3-yl]-3-[3-methoxy-4-(4-methyl-1H-imidazol-1-yl)benzylidene]piperidin-2-one] and `COc1cc(/C=C2\CCCN(C3Cc4ccc(F)cc4C3)C2=O)ccc1-n1cnc(C)c1` [Example 991, (E)-1-[(2S) and (2R)-5-fluoroindan-2-yl]-3-[3-methoxy-4-(4-methyl-1H-imidazol-1-yl)benzylidene]piperidin-2-one] are within 1.5-fold of each other in IC50: 0.071 µM for the first, 0.06 µM for the second.

For `COc1cc(/C=C2\CCCN(C3(c4ccc(F)cc4)CCOCC3)C2=O)ccc1-n1cnc(C)c1` [Example 639, (E)-1-[4-(4-fluorophenyl)tetrahydropyran-4-yl)-3-(3-methoxy-4-(4-methyl-1H-imidazol-1-yl)benzylidene]piperidin-2-one], the IC50 was 0.056 µM.
